Laboratory results taken from patent publication US11878972B2, “Treatment of neurological disorders” (TORQUR AG, priority 2016, dated 2024).

Assays:
pPKB S473 in A2058 cells = assay: In-cell Western blot, pPKB S473; type: cell-based; details: treated for 1 hour, normalized to α-tubulin
Description: (§1) Cells are fixed with 4% paraformaldehyde for 30 minutes at room temperature, washed 2 times with 1% BSA in PBS, permeabilized with 0.1% Triton X-100 in PBS/1% BSA for 30 minutes at room temperature and blocked with 5% goat serum in PBS/1% BSA/0.1% Triton X-100 for 30 minutes at room temperature. […] Cells are washed 3 times 5 minutes with PBS/1% BSA/0.1% triton and plate scanned with the Odyssey Infrared Scanning system using both 700 and 800 nm channels. […] To correct for background staining in the data analysis wells are treated only with secondary antibodies.
(§2) For data analysis the mean background signal from channel 700 nm and 800 nm are subtracted from each signal in channel 700 nm and 800 nm, respectively.
(§3) IC50 values of each compound are determined by plotting the normalized pPBK S473 and pS6 S235/S236 signals, respectively, versus the compound concentrations (in logarithmic scale) and then by fitting a sigmoidal dose-response curve with variable slope to the data using GraphPad™ Prism.

[1] = tested on: pS6 S235/S236 in A2058 cells; assay: In-cell Western blot, pS6 S235/S236; type: cell-based; details: treated for 1 hour, normalized to α-tubulin
Description: as §1, §2, §3

[2] = tested on: female NMRI mice, nonepileptic (sham-SE) and epileptic (pilo-SE); assay: Maximal electroshock seizure threshold test (MEST); type: in vivo, mouse; details: for CC50 / threshold increase: Phenobarbital; for increase of the seizure threshold in MEST: 5 mg/kg rapamycin; for increase of the threshold: rapamycin after intraperitoneal injections
Description: A total of 166 adult female NMRI mice were used obtained from Charles River (Sulzfeld, Germany) at a weight range of 21-25 g (mice). Animals were kept under the following conditions: Housing: Animals were housed in groups of max. 8 mice under controlled conditions (temperature: 22±1° C.; humidity: 50% 60%/), under a 12-h light-dark cycle (lights on at 6:00 a.m.). Feeding: Standard laboratory chow (Altromin 1324 standard diet, Altromin Spezialfutter GmbH, Lage, Germany) was provided ad libitum. Drinking water: Tap water was provided ad libitum.
The MEST determines a population seizure threshold in groups of ˜20 animals and not the threshold for an individual animal. In the present study, the MEST was determined by a staircase procedure as previously described. A stimulator (BMT Medizintechnik, Berlin, Germany) that delivered a constant current (adjustable from 1-200 mA regardless of the impedance of the animal) with sinusoidal pulses (50/sec) for 0.2 sec was used.
Current administration was performed via bilateral transcorneal stimulation (using copper electrodes). Before transcorneal stimulation, a drop of tetracaine solution (2%) was administered to the eyes of the mouse for local anesthesia. Two minutes later, the mouse was restrained by hand to press the copper electrodes on both corneas while the stimulus was applied by stepping on a foot pedal switch connected with the stimulator. Electrodes were covered with soft leather and soaked with saline before each current application. […] The first stimulation was started with a current near to the control threshold.
3 (HCl): 40/100 mg in 10 ml (Suspension; 5% PEG 400 and 2% Tween 80, HPBCD (10%6)) • Cpd. 8 (HCl): 12.5/25 mg in 10 ml (5% PEG 400 and 2% Tween 80, HPBCD (10%))
Statistical analysis were calculated using Student's t-test. All tests were used two-sided; a P<0.05 was considered significant.
We performed no special tests for the determination of adverse effects. Mice were observed about 30 min after injection in their home cages for obvious sedation or reduction of wellbeing. Five minutes before electrical stimulation mice were again observed in their home cages and two minutes before stimulation during handling procedure for treatment with local anaesthesia. Every obvious variation from normal behavior was noted. Only phenobarbital induced noticeable sedation which lasted for more than 60 min. All other test drugs (including vehicle solutions) were tolerated without any obvious adverse effects.

[3] = 50 mg/kg Levetiracetam i.p., pretreatment 1 h

SMILES | IC50 (pPKB S473 in A2058 cells; Homo sapiens, A2058, 1 h) | IC50 ([1]; Homo sapiens, A2058, 1 h) | IC50 (pPKB S473 in A2058 cells; Homo sapiens) | also measured
Nc1ncc(-c2nc(N3CCOCC3)nc(N3CCSCC3)n2)c(C(F)F)n1 [Compound 21, 4-(difluoromethyl)-5-(4-morpholino-6-thiomorpholino-1,3,5-triazin-2-yl)pyrimidin-2-amine] | 57 nM | 216 nM |  | 
CC1(C)COCCN1c1nc(-c2cnc(N)cc2C(F)F)nc(N2CCOCC2(C)C)n1 [Compound 39, 5-[4,6-bis(3,3-dimethylmorpholin-4-yl)-1,3,5-triazin-2-yl]-4-(difluoromethyl)pyridin-2-amine] | 106 nM | 47 nM |  | 
Nc1ncc(-c2nc(N3CCNCC3)nc(N3CCOCC3)n2)c(C(F)F)n1 [Compound 13, 4-(difluoromethyl)-5-(4-morpholino-6-(piperazin-1-yl)-1,3,5-triazin-2-yl)pyrimidin-2-amine] |  |  |  | IC50 (pPKB S473 in A2058 cells): 37 nM; IC50 [1]: 120 nM
C[C@@H]1COC[C@H](C)N1c1nc(-c2cnc(N)cc2C(F)F)nc(N2[C@H](C)COC[C@@H]2C)n1 [Compound 40, 5-[4,6-bis[(3R,5S)-3,5-dimethylmorpholin-4-yl]-1,3,5-triazin-2-yl]-4-(difluoromethyl)pyridin-2-amine] |  |  | 252 nM | IC50 ([1]; Homo sapiens): 160 nM
CCC1(c2ccccc2)C(=O)NC(=O)NC1=O [Phenobarbital, reference compound] |  |  |  | CC50 ([2]; epileptic mice): 26.56 mA; threshold increase ([2]; epileptic mice): 66%; CC50 ([2]; nonepileptic mice): 25.7 mA; threshold increase ([2]; nonepileptic mice): 69%; duration of noticeable sedation ([2]; mice observed in home cages after injection): more than 60 min
C[C@H]1COCCN1c1cc(-c2cnc(N)cc2C(F)F)nc(N2CCOCC2)n1 [Compound 27, (S)-4-(difluoromethyl)-5-(6-(3-methylmorpholino)-2-morpholinopyrimidin-4-yl)pyridin-2-amine] |  |  | 614 nM | IC50 ([1]; Homo sapiens): 766 nM
Nc1cc(C(F)F)c(-c2nc(N3CCOCC3)cc(N3CCOCC3)n2)cn1 [Compound 18, 4-(difluoromethyl)-5-(4,6-dimorpholinopyrimidin-2-yl)pyridin-2-amine] |  | 256 nM | 243 nM | 
COC[C@@H]1COCCN1c1nc(-c2cnc(N)cc2C(F)F)nc(N2CCOC[C@H]2C)n1 [Compound 46, 4-(difluoromethyl)-5-[4-[(3R)-3-(methoxymethyl)morpholin-4-yl]-6-[(3R)-3-methylmorpholin-4-yl]-1,3,5-triazin-2-yl]pyridin-2-amine] | 956 nM | 426 nM |  | 
C[C@H]1COCCN1c1nc(-c2cnc(N)nc2C(F)(F)F)nc(N2CCOCC2)n1 [reference compound] |  |  | 91 nM | IC50 ([1]; Homo sapiens): 164 nM
Nc1cc(C(F)(F)F)c(-c2nc(N3CCOCC3)cc(N3CCOCC3)n2)cn1 [reference compound] |  | 665 nM | 555 nM | 
CC[C@@H]1COCCN1c1nc(-c2cnc(N)cc2C(F)F)nc(N2CCOC[C@H]2C)n1 [Compound 86, 4-(difluoromethyl)-5-[4-[(3R)-3-ethylmorpholin-4-yl]-6-[(3R)-3-methylmorpholin-4-yl]-1,3,5-triazin-2-yl]pyridin-2-amine] | 231 nM |  |  | 
CC[C@@H]1COCCN1c1nc(-c2cnc(N)cc2C(F)F)nc(N2CCOC[C@H]2CC)n1 [Compound 54, 5-[4,6-bis[(3R)-3-ethylmorpholin-4-yl]-1,3,5-triazin-2-yl]-4-(difluoromethyl)pyridin-2-amine] | 354 nM | 209 nM |  | 
C[C@H]1COC[C@H](C)N1c1nc(-c2cnc(N)cc2C(F)F)nc(N2[C@@H](C)COC[C@@H]2C)n1 [Compound 83, 5-[4,6-bis[(3S,5S)-3,5-dimethylmorpholin-4-yl]-1,3,5-triazin-2-yl]-4-(difluoromethyl)pyridin-2-amine] |  |  | 379 nM | IC50 ([1]; Homo sapiens): 294 nM
Nc1ncc(-c2cc(N3CCOCC3)nc(N3CCOCC3)n2)c(C(F)F)n1 [Compound 17, 4′-(difluoromethyl)-2,6-dimorpholino-[4,5′-bipyrimidin]-2′-amine] |  | 149 nM |  | 
Nc1cc(C(F)F)c(-c2nc(N3CCOCC3)nc(N3CCSCC3)n2)cn1 [Compound 20, 4-(difluoromethyl)-5-(4-morpholino-6-thiomorpholino-1,3,5-triazin-2-Yl)pyridin-2-amine] | 146 nM | 250 nM |  | 
Nc1cc(C(F)F)c(-c2nc(N3CCNCC3)nc(N3CCOCC3)n2)cn1 [Compound 12, 4-(difluoromethyl)-5-(4-morpholino-6-(piperazin-1-yl)-1,3,5-triazin-2-yl)pyridin-2-amine] |  |  |  | IC50 (pPKB S473 in A2058 cells): 219 nM; IC50 [1]: 407 nM
C[C@H]1COCCN1c1nc(-c2cnc(N)nc2C(F)F)nc(N2CCOCC2)n1 [Compound 9, (S)-4-(difluoromethyl)-5-(4-(3-methylmorpholino)-6-morpholino-1,3,5-triazin-2-yl)pyrimidin-2-amine] |  |  | 35 nM | IC50 ([1]; Homo sapiens): 72 nM
C[C@@H]1COCCN1c1nc(-c2cnc(N)cc2C(F)F)nc(N2CCOC[C@H]2C)n1 [Compound 41, 5-[4,6-bis[(3R)-3-methylmorpholin-4-yl]-1,3,5-triazin-2-yl]-4-(difluoromethyl)pyridin-2-amine] |  |  | 436 nM | IC50 ([1]; Homo sapiens): 261 nM
CC[C@H]1COCCN1c1nc(-c2cnc(N)cc2C(F)F)nc(N2CCOC[C@H]2C)n1 [Compound 85, 4-(difluoromethyl)-5-[4-[(3S)-3-ethylmorpholin-4-yl]-6-[(3R)-3-methylmorpholin-4-yl]-1,3,5-triazin-2-yl]pyridin-2-amine] |  | 241 nM |  | 
C[C@H]1COCCN1c1nc(-c2cnc(N)cc2C(F)(F)F)nc(N2CCOCC2)n1 [reference compound] |  |  | 196 nM | IC50 ([1]; Homo sapiens): 90 nM
CC1(C)COCCN1c1nc(-c2cnc(N)cc2C(F)F)nc(N2CCOCC2)n1 [Compound 42, 4-(difluoromethyl)-5-[4-(3,3-dimethylmorpholin-4-yl)-6-morpholino-1,3,5-triazin-2-yl]pyridin-2-amine] | 54 nM | 45 nM |  | 
C[C@H]1COCCN1c1nc(-c2cnc(N)cc2C(F)F)cc(N2CCOCC2)n1 [Compound 31, (S)-4-(difluoromethyl)-5-(2-(3-methylmorpholino)-6-morpholinopyrimidin-4-yl)pyridin-2-amine] |  |  | 146 nM | IC50 ([1]; Homo sapiens): 124 nM
Nc1cc(C(F)F)c(-c2cc(N3CCOCC3)nc(N3CCOCC3)n2)cn1 [Compound 16, 4-(difluoromethyl)-5-(2,6-dimorpholinopyrimidin-4-yl)pyridin-2-amine] |  | 184 nM | 207 nM | 
C[C@@H]1COCCN1c1nc(-c2cnc(N)cc2C(F)F)nc(N2[C@H](C)COC[C@H]2C)n1 [Compound 78, 4-(difluoromethyl)-5-[4-[(3R,5R)-3,5-dimethylmorpholin-4-yl]-6-[(3R)-3-methylmorpholin-4-yl]-1,3,5-triazin-2-yl]pyridin-2-amine] | 506 nM | 392 nM |  | 
CC[C@@H](C(N)=O)N1CCCC1=O [Levetiracetam, reference compound] |  |  |  | Threshold difference between nonepileptic and epileptic [2, 3]: −4%; Threshold difference between vehicle and drug threshold, nonepileptic [2, 3]: 21%
Nc1cc(C(F)F)c(-c2nc(N3CCOCC34CCC4)nc(N3CCOCC34CCC4)n2)cn1 [Compound 55, 5-[4,6-bis(8-oxa-5-azaspiro[3.5]nonan-5-yl)-1,3,5-triazin-2-yl]-4-(difluoromethyl)pyridin-2-amine] | 942 nM | 526 nM |  | 
C[C@@H]1COCCN1c1nc(-c2cnc(N)cc2C(F)F)nc(N2C3COCC2C3)n1 [Compound 50, 4-(difluoromethyl)-5-[4-[(3R)-3-methylmorpholin-4-yl]-6-(3-oxa-6-azabicyclo[3.1.1]heptan-6-yl)-1,3,5-triazin-2-yl]pyridin-2-amine] | 1560 nM | 407 nM |  | 
CO[C@H]1C[C@@H]2CC[C@@H](C)[C@@](O)(O2)C(=O)C(=O)N2CCCC[C@H]2C(=O)O[C@H]([C@H](C)C[C@@H]2CC[C@@H](O)[C@H](OC)C2)CC(=O)[C@H](C)/C=C(\C)[C@@H](O)[C@@H](OC)C(=O)[C@H](C)C[C@H](C)/C=C/C=C/C=C/1C [rapamycin, reference compound] |  |  |  | increase of the seizure threshold in MEST ([2]; epileptic mice): 5%; increase of the seizure threshold in MEST ([2]; nonepileptic mice): 13%; increase of the threshold ([2]; epileptic mice): no effect; increase of the threshold ([2]; nonepileptic mice): 20%
C[C@@H]1COCCN1c1nc(-c2cnc(N)cc2C(F)F)nc(N2CCOCC23CCC3)n1 [Compound 88, 4-(difluoromethyl)-5-[4-[(3R)-3-methylmorpholin-4-yl]-6-(8-oxa-5-azaspiro[3.5]nonan-5-yl)-1,3,5-triazin-2-yl]pyridin-2-amine] | 271 nM | 192 nM |  | 
